These results are taken from patent EP1422230B1 (priority 2002, dated 2004).

Counter-ions that a name gives are not always drawn. Like-named read-outs stand apart in the source and are kept apart here.

One may read the Cmax as the maximum level reached in the sampled fluid or tissue. By Tmax is commonly meant the time at which the peak concentration occurs.

One series relates to rats. More on the design: species or system male Sprague-Dawley rats. The following applies: rat, in vivo.
The conditions of series [1]: parenteral, on a weight basis; cited from earlier work.
The conditions of series [2]: intramuscular injection or intravenous injection; cited from earlier work.
The conditions of series [3]: cited from earlier work; for Plasma concentrations: intravenous about 0.3 mg.
The mark [4] stands for this setting: intravenous, single dose of about 0.3 mg.

For the molecule `CO[C@]12CC[C@@]3(C[C@@H]1[C@](C)(O)C(C)(C)C)[C@H]1Cc4ccc(O)c5c4[C@@]3(CCN1CC1CC1)[C@H]2O5` [Buprenorphine base, (5α, 7α (S)-17-cyclopropyl-methyl)-α -(1,1-dimethylethyl)-4,5-epoxy-18,19-dihydro-3-hydroxy-6-methoxy-α -methyl-6,14-ethenomorphinan-7-methanol], the “duration of analgesic action” value in the series on rats fell in the range of 48 to 50 h. Moreover, the duration of action in the series on rats (sc) was 48 to 50 h. In addition, in series [1], the “analgesic potency, times as that of meperidine” value is recorded as “about 600 times” and the “analgesic potency, times as that of pentazocine” value was “about 200 times”. In series [2], the duration of action is 6 to 8 h. In series [3] (0.4 mg sublingual dose), the Cmax was 0.5 ± 0.06 ng/mL, the Tmax is 3.5 ± 0.667 h and the systemic availability is given as 57.7±6%. For the same molecule, the Total plasma clearance result in series [3] (conscious postoperative patients) is reported as “approximately 0.28 L/minute”. Also, the “mean peak plasma buprenorphine concentrations” value in series [3] (intramuscular second 0.3-mg dose 3 hours after the initial intravenous dose) is on record as “about 3.6 ng/mL”. The plasma buprenorphine concentrations result in series [3] (intramuscular second 0.3-mg dose, after about 3 hours) is given as “about 0.4 ng/mL”. Also, the Plasma concentrations result in series [3] (after about 5 minutes) is recorded as “about 9 ng/mL”. The Plasma concentrations result in series [3] (after about 3 hours) is reported as “about 0 .4 ng/mL”. For the same molecule, in series [3] (setting [4]), the “mean peak plasma drug concentrations” value is given as “about 18 ng/mL” and the “time of mean peak plasma drug concentrations” value was not above 2 min.
Consider `CO[C@]12CC[C@@]3(C[C@@H]1[C@](C)(O)C(C)(C)C)[C@H]1Cc4ccc(O)c5c4[C@@]3(CCN1CC1CC1)[C@H]2O5` [Buprenorphine HCl], for which, in the series with rats (HCl), the “Analgesic duration” value came out at 5 h and the “duration of analgesic action” value was 3 to 5 h.
